From US7893031B2, “Neuronal differentiation inhibitor peptide and use thereof” (Toagosei Co., Ltd., priority 2005, dated 2011)
No end group written: not given here.

Test system: adipose stem cells procured from humans
Test: Evaluation of neuronal differentiation inhibitor activity of the synthetic peptides (immunostaining for MAPs and NeuN neuron markers, confocal laser microscopy)
Format: cell-based
Settings: culture of human adipose stem cells, 24 hours after peptide addition; for degree of neuronal differentiation (neuron markers MAPs and NeuN) when added together with VHL peptide: sample peptide added together with VHL peptide (comparative sample 1), each about 100 ng/mL
Procedure: Each sample obtained in example 1 was analyzed for the neuronal differentiation inhibitor activity.
In particular, each sample peptide together with the peptide of comparative sample 1 (hereinafter referred to as VHL peptide) was added to and incubated in a culture of adipose stem cells procured from humans. The addition concentration of each peptide was about 100 ng/mL. For comparison, a culture containing VHL peptide alone was incubated in a similar manner.
At 24 hours after peptide addition, evaluation was carried out by a standard immune antibody procedure. Specifically, MAPs ([…]) and NeuN (neuronal nuclei) were added as neuron markers, and the degree of neuronal differentiation was evaluated by confocal laser microscopy. MAPs is a marker that can stain (detect) broadly, from relatively immature neurons to mature neurons. NeuN is a marker that can specifically stain (detect) mature neurons.

Substance	degree of neuronal differentiation (neuron markers MAPs and NeuN) when added together with VHL peptide	degree of neuronal differentiation (neuron markers MAPs and NeuN) (VHL peptide alone, about 100 ng/mL)
YARAAARQARA-TLHQQCIRVLKNNID (YARAAARQARATLHQQCIRVLKNNID; not fully specified (C-terminus); printed as YARAAARQARA-TLHQQCIRVLKNNID) [Sample 1, PTD4 domain plus 15 N-terminal residues of the BC-box of human elongin-A]	no significant neuronal differentiation was observed	
YARAAARQARA-TLKERCLQVVRSLVK (YARAAARQARATLKERCLQVVRSLVK) [VHL peptide, reference compound]		significant neuronal differentiation
YARAAARQARA-TLVSLCQTVLMSHID (YARAAARQARATLVSLCQTVLMSHID; not fully specified (C-terminus); printed as YARAAARQARA-TLVSLCQTVLMSHID) [Sample 2, PTD4 domain plus 15 N-terminal residues of the BC-box of C. elegans elongin-A]	no significant neuronal differentiation was observed	
YARAAARQARA-SLQTLCEISLMRNHS (YARAAARQARASLQTLCEISLMRNHS; not fully specified (C-terminus); printed as YARAAARQARA-SLQTLCEISLMRNHS) [Sample 3, PTD4 domain plus 15 N-terminal residues of the BC-box of S. cerevisiae elongin-A]	no significant neuronal differentiation was observed	
